The structures appear in SMILES notation. Where only a bound is given, the exact number is not on record here.

T1 sequence (Q16539 whole entry): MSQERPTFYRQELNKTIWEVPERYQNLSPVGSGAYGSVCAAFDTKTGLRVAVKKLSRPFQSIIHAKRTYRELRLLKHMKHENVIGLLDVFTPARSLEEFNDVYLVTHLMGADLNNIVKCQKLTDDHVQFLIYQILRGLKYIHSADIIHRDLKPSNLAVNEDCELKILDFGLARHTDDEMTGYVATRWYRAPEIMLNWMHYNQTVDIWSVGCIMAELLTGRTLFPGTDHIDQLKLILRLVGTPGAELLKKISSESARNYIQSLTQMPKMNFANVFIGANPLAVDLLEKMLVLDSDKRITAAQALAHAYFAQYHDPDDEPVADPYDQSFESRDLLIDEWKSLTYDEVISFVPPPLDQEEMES

The first assay concerns the target T1, purified recombinant human p38 alpha MAPK (Homo sapiens, UniProt Q16539).
T1 construct: purchased Millipore, USA
Put plainly: Inhibition of p38 alpha MAPK activity: TR-FRET kinase assay. The format is biochemical. Conditions: Concentration 100 nM; read-out: P38α Inhibition. Here is the method:
Inhibition of p38 Alpha MAPK Activity: Time-Resolved Fluorescence Resonance Energy Transfer Kinase Standard Assay (TR-FRET Assay)
Compounds of present invention at various concentrations were premixed with DMSO. The experiment was initiated by mixing 0.5% 1.0% DMSO as vehicle/compounds with purified recombinant human p38 alpha MAPK (Millipore, USA) in the wells and 15 min incubation at RT. Thereafter, 30 nM of Biotinylated GST-ATF2 (Activation Transcription Factor2) and 100 μM of ATP were added in to the wells containing reaction mixture, followed by reincubation for 60 minutes at RT. Reaction was terminated by addition of 10 mM of EDTA and detection reagent containing anti-phosphothreonine ATF2 antibody (Perkin Elmer, USA) labelled with europium chelate and APC (Allophycocyanin) labeled streptavidin, into the reaction mixture which was further incubated for 60 minutes at room temperature. The degree of phosphorylation of the substrate (GST-ATF2) was measured using Envision multimode reader (Perkin Elmer). Percentage inhibition of p38 kinase activity was calculated by determining ratio of specific europium 665 nm energy transfer signal to reference 615 nm signal.
For orientation: TR-FRET usually uses a lanthanide donor and a delayed reading to cut background.
Usually inhibition stands for how much of the control response was suppressed. On to `CCOC(=O)c1cnc2sc3cc(Oc4ccccc4CNC(=O)Nc4cc(C(C)(C)C)nn4-c4ccc(O)c(Cl)c4)ccc3n12` [Compound 25, ethyl 7-{2-[({[3-tert-butyl-1-(3-chloro-4-hydroxyphenyl)-1H-pyrazol-5-yl]carbamoyl}amino)methyl]phenoxy}imidazo[2,1-b][1,3]benzothiazole-3-carboxylate], for which the inhibition at 0.1 µM was 60 to 80%.

Still in this assay, the particulars now being: Concentration 1 μM; read-out: P38α Inhibition.
With `CCOC(=O)c1cnc2sc3cc(Oc4ccccc4CNC(=O)Nc4cc(C(C)(C)C)nn4-c4ccccc4)ccc3n12` [Compound 67, ethyl 7-[2-({[(3-tert-butyl-1-phenyl-1H-pyrazol-5-yl)carbamoyl]amino}methyl)phenoxy]imidazo[2,1-b][1,3]benzothiazole-3-carboxylate], the inhibition at 1 µM was in the range of 60 to 80%.

With `CC(C)(C)c1cc(NC(=O)NCc2ccccc2Sc2ccc3c(c2)sc2ncc(C(=O)O)n23)n(-c2ccc(O)c(Cl)c2)n1` [Compound 24, 7-({2-[({[3-tert-butyl-1-(3-chloro-4-hydroxyphenyl)-1H-pyrazol-5-yl]carbamoyl}amino)methyl]phenyl}sulfanyl)imidazo[2,1-b][1,3]benzothiazole-3-carboxylic acid], the inhibition at 1 µM is 40 to 60%.

In the case of `CC(C)(C)c1cc(NC(=O)NCc2ccccc2Oc2ccc3c(c2)sc2ncc(CN4CCC(O)CC4)n23)n(-c2ccc(O)c(Cl)c2)n1` [Compound 65, 1-[3-tert-butyl-1-(3-chloro-4-hydroxyphenyl)-1H-pyrazol-5-yl]-3-[2-({3-[(4-hydroxypiperidin-1-yl)methyl]imidazo[2,1-b][1,3]benzothiazol-7-yl}oxy)benzyl]urea], the inhibition at 1 µM was in the range of 60 to 80%.

Take `CCOC(=O)c1cnc2sc3cc(Oc4ccccc4CNC(=O)Nc4cc(C(C)(C)C)nn4-c4ccc(OC)cc4)ccc3n12` [Compound 12, ethyl 7-{2-[({[3-tert-butyl-1-(4-methoxyphenyl)-1H-pyrazol-5-yl]carbamoyl}amino)methyl]phenoxy}imidazo[2,1-b][1,3]benzothiazole-3-carboxylate]: the inhibition at 1 µM was 80 to 100%.

For the compound `COc1ccc(-n2nc(C(C)(C)C)cc2NC(=O)Nc2ccc(Oc3ccc4c(c3)sc3ncc(CO)n34)cc2)cc1` [Compound 15, 1-[3-tert-butyl-1-(4-methoxyphenyl)-1H-pyrazol-5-yl]-3-(4-{[3-(hydroxymethyl)imidazo[2,1-b][1,3]benzothiazol-7-yl]oxy}phenyl)urea], the inhibition at 1 µM was in the range of 60 to 80%.

For `CN(CCO)C(=O)c1cnc2sc3cc(Oc4ccccc4CNC(=O)Nc4cc(C(C)(C)C)nn4-c4ccc(O)c(Cl)c4)ccc3n12` [Compound 28, 7-{2-[({[3-tert-butyl-1-(3-chloro-4-hydroxyphenyl)-1H-pyrazol-5-yl]carbamoyl}amino)methyl]phenoxy}-N-(2-hydroxyethyl)-N-methylimidazo[2,1-b][1,3]benzothiazole-3-carboxamide], the inhibition at 1 µM is 80 to 100%.

In the case of `CC(C)(C)c1cc(NC(=O)Nc2ccc(Sc3ccc4c(c3)sc3ncc(C(=O)O)n34)cc2)n(-c2ccc(O)cc2)n1` [Compound 9, 7-{[4-({[3-tert-butyl-1-(4-hydroxyphenyl)-1H-pyrazol-5-yl]carbamoyl}amino)phenyl]sulfanyl}imidazo[2,1-b][1,3]benzothiazole-3-carboxylic acid], the inhibition at 1 µM was 80 to 100%.

Turning to `CC(C)(C)c1cc(NC(=O)Nc2ccc(Oc3ccc4c(c3)sc3ncc(CO)n34)cc2)n(-c2ccc(O)c(Cl)c2)n1` [Compound 27, 1-[3-tert-butyl-1-(3-chloro-4-hydroxyphenyl)-1H-pyrazol-5-yl]-3-(4-{[3-(hydroxymethyl)imidazo[2,1-b][1,3]benzothiazol-7-yl]oxy}phenyl)urea], the inhibition at 1 µM was 60 to 80%.

As for `Cc1ccc(-n2nc(C(C)(C)C)cc2NC(=O)Nc2ccc(Oc3ccc4c(c3)sc3nc(C(=O)NCCO)cn34)cc2)cc1` [Compound 4, 7-[4-({[3-tert-butyl-1-(4-methylphenyl)-1H-pyrazol-5-yl]carbamoyl}amino)phenoxy]-N-(2-hydroxyethyl)imidazo[2,1-b][1,3]benzothiazole-2-carboxamide], the inhibition at 1 µM lay within 80 to 100%.

`COc1ccc(-n2nc(C(C)(C)C)cc2NC(=O)Nc2ccc(Sc3ccc4c(c3)sc3ncc(C(=O)O)n34)cc2)cc1` [Compound 10, 7-{[4-({[3-tert-butyl-1-(4-methoxyphenyl)-1H-pyrazol-5-yl]carbamoyl}amino)phenyl]sulfanyl}imidazo[2,1-b][1,3]benzothiazole-3-carboxylic acid]: the inhibition at 1 µM was 80 to 100%.

Take `CC(C)(C)c1cc(NC(=O)NCc2ccccc2Oc2ccc3c(c2)sc2ncc(COCC4CC4)n23)n(-c2ccc(O)c(Cl)c2)n1` [Compound 56, 1-[3-tert-butyl-1-(3-chloro-4-hydroxyphenyl)-1H-pyrazol-5-yl]-3-[2-({3-[(cyclopropylmethoxy)methyl]imidazo[2,1-b][1,3]benzothiazol-7-yl}oxy)benzyl]urea]: the inhibition at 1 µM fell in the range of 60 to 80%.

Turning to `CC(C)(C)c1cc(NC(=O)NCc2ccccc2Oc2ccc3c(c2)sc2ncc(C(=O)NCCO)n23)n(-c2ccc(O)cc2)n1` [Compound 14, 7-{2-[({[3-tert-butyl-1-(4-hydroxyphenyl)-1H-pyrazol-5-yl]carbamoyl}amino)methyl]phenoxy}-N-(2-hydroxyethyl)imidazo[2,1-b][1,3]benzothiazole-3-carboxamide], the inhibition at 1 µM lay within 80 to 100%.

With `CC(C)(C)c1cc(NC(=O)NCc2ccccc2Oc2ccc3c(c2)sc2ncc(CO)n23)n(-c2ccc(O)cc2)n1` [Compound 16, 1-[3-tert-butyl-1-(4-hydroxyphenyl)-1H-pyrazol-5-yl]-3-(2-{[3-(hydroxymethyl)imidazo[2,1-b][1,3]benzothiazol-7-yl]oxy}benzyl)urea], the inhibition at 1 µM fell in the range of 80 to 100%.

As for `CCOC(=O)c1cnc2sc3cc(Oc4ccccc4CNC(=O)NC(CO)c4ccccc4)ccc3n12` (stereo not drawn) [Compound 42, ethyl 7-[2-({[(2-hydroxy-1-phenylethyl)carbamoyl]amino}methyl)phenoxy]imidazo[2,1-b][1,3]benzothiazole-3-carboxylate], the inhibition at 1 µM is at most 20%.

Regarding `CC(C)(C)c1cc(NC(=O)NCc2ccccc2Oc2ccc3c(c2)sc2ncc(C(=O)NC(CO)CO)n23)n(-c2ccc(O)c(Cl)c2)n1` [Compound 21, 7-{2-[({[3-tert-butyl-1-(3-chloro-4-hydroxyphenyl)-1H-pyrazol-5-yl]carbamoyl}amino)methyl]phenoxy}-N-(1,3-dihydroxypropan-2-yl)imidazo[2,1-b][1,3]benzothiazole-3-carboxamide], the inhibition at 1 µM is 80 to 100%.

`COCc1c(C)nc2sc3cc(Oc4ccccc4CNC(=O)Nc4cc(C(C)(C)C)no4)ccc3n12` [Compound 50, 1-(3-tert-butyl-1,2-oxazol-5-yl)-3-(2-{[3-(methoxymethyl)-2-methylimidazo[2,1-b][1,3]benzothiazol-7-yl]oxy}benzyl)urea]: the inhibition at 1 µM is 80 to 100%.

As to `CC(C)(C)c1cc(NC(=O)NCc2ccccc2Oc2ccc3c(c2)sc2ncc(C(=O)NCCO)n23)n(-c2ccc(O)c(Cl)c2)n1` [Compound 20, 7-{2-[({[3-tert-butyl-1-(3-chloro-4-hydroxyphenyl)-1H-pyrazol-5-yl]carbamoyl}amino)methyl]phenoxy}-N-(2-hydroxyethyl)imidazo[2,1-b][1,3]benzothiazole-3-carboxamide], the inhibition at 1 µM lay within 80 to 100%.

Take `CCOC(=O)c1cnc2sc3cc(Oc4ccc(NC(=O)Nc5c(-c6ccccc6)noc5C)cc4)ccc3n12` [Compound 43, ethyl 7-(4-{[(5-methyl-3-phenyl-1,2-oxazol-4-yl)carbamoyl]amino}phenoxy)imidazo[2,1-b][1,3]benzothiazole-3-carboxylate]: the inhibition at 1 µM is at most 20%.

On to `CCOC(=O)c1cnc2sc3cc(Oc4ccccc4CNC(=O)NC4CCCCC4)ccc3n12` [Compound 46, ethyl 7-(2-{[(cyclohexylcarbamoyl)amino]methyl}phenoxy)imidazo[2,1-b][1,3]benzothiazole-3-carboxylate], for which the inhibition at 1 µM was at most 20%.

`CC(C)(C)c1cc(NC(=O)NCc2ccccc2Oc2ccc3c(c2)sc2ncc(C(=O)O)n23)n(-c2ccc(O)c(Cl)c2)n1` [Compound 19, 7-{2-[({[3-tert-butyl-1-(3-chloro-4-hydroxyphenyl)-1H-pyrazol-5-yl]carbamoyl}amino)methyl]phenoxy}imidazo[2,1-b][1,3]benzothiazole-3-carboxylic acid]: the inhibition at 1 µM lay within 80 to 100%.

As to `CCOC(=O)c1cnc2sc3cc(Oc4ccc(NC(=O)Nc5cc(C(C)(C)C)nn5-c5ccc(O)c(Cl)c5)cc4)ccc3n12` [Compound 26, ethyl 7-[4-({[3-tert-butyl-1-(3-chloro-4-hydroxyphenyl)-1H-pyrazol-5-yl]carbamoyl}amino)phenoxy]imidazo[2,1-b][1,3]benzothiazole-3-carboxylate], the inhibition at 1 µM is at most 20%.

For the compound `CC(C)(C)c1cc(NC(=O)NCc2ccccc2Oc2ccc3c(c2)sc2ncc(CN4CCOCC4)n23)n(-c2ccc(O)c(Cl)c2)n1` [Compound 35, 1-[3-tert-butyl-1-(3-chloro-4-hydroxyphenyl)-1H-pyrazol-5-yl]-3-(2-{[3-(morpholin-4-ylmethyl)imidazo[2,1-b][1,3]benzothiazol-7-yl]oxy}benzyl)urea], the inhibition at 1 µM lay in the range of 80 to 100%.

Consider `CC(C)(C)c1cc(NC(=O)NCc2ccccc2Oc2ccc3c(c2)sc2ncc(C(=O)O)n23)n(-c2ccc(O)cc2)n1` [Compound 13, 7-{2-[({[3-tert-butyl-1-(4-hydroxyphenyl)-1H-pyrazol-5-yl]carbamoyl}amino)methyl]phenoxy}imidazo[2,1-b][1,3]benzothiazole-3-carboxylic acid], for which the inhibition at 1 µM was 80 to 100%.

The values above are taken from patent US10227361B2, “Fused imidazobenzothiazole compounds” (TORRENT PHARMACEUTICALS LIMITED, priority 2014, dated 2019).
